Like-named read-outs stand apart in the source and are kept apart here.
Columns and labels:
[1] = biological target: T1, human alkyltransferase (Homo sapiens, UniProt P16455); assay: Inactivation of purified recombinant human alkyltransferase in vitro; format: biochemical; settings: for inactivation of alkyltransferase compared with parent compound: comparison in words
T1 sequence (P16455 1-207): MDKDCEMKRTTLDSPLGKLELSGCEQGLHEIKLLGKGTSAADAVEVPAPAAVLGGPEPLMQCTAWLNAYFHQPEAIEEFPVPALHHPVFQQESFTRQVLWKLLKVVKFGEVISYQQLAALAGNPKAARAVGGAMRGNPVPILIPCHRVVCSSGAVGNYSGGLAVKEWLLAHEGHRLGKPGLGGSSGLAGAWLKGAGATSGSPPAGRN
Experimental: ED50 values for the inactivation of purified human alkyltransferase in vitro are obtained as previously described (Nelson et al., J. Med. Chem. 2004, 47, 3887-3891 and Pegg et al., Biochem. Pharmacol. 1997, 53, 1559-1564). Purified recombinant human alkyltransferase is incubated with different concentrations of prodrugs in 0.5 mL of reaction buffer (50 mM Tris-HCl, pH 7.6, 0.1 mM EDTA, 5.0 mM dithiothreitol) containing 50 μg of hemocyanin or 10 μg calf thymus DNA for 30 min at 37° C.

[2] = Release of folate on incubation in neutral solution (ester stability); format: physicochemical; settings: incubated in neutral solution
[3] = system: human tumor cell extracts; assay: Release of folate from esters by human tumor cell extracts; format: in vitro ADME; settings: 200 μM ester, 2 mg lysate protein, pH 7.4, 37° C
Experimental: Cells are trypsinized, washed with Hank's balanced salt solution, counted and pelleted. On ice, the cell pellets are resuspended in 50 mM sodium phosphate, 5 mM DTT, pH 7.4 at a concentration of 10^8 cells/ml and disrupted by sonication. The sonicated cells are centrifuged at 12,000×g for 10 min and the supernatant is removed. Complete mini protease inhibitor (Roche, Mannheim Germany) is added as directed by the supplier. Lysate total protein concentration is determined, and the lysates are frozen until used at −20° C. Reactions (600 μL), containing one of the ester substrates (200 μM) and 2 mg of lysate protein in 50 mM phosphate buffer (pH 7.4) are incubated at 37° C. At various times 50 μL, are removed for analysis by HPLC. The amount of folic acid liberated is used to determine the extent of ester hydrolysis.
The rate of release of folate is about 2.2% per day from 1; 3.2% per day from 2; and 0.9% per day from 3. […] The extent of conversion to folate by human tumor cell extracts can vary slightly according to the cell type with MCF-7 cells showing the highest rate of conversion.

[4] = system: HT29 cells; assay: Sensitization of HT29 cells to killing by BCNU, colony-forming assay; format: cell-based; settings: RPMI medium, drug 2 h prior to 40 μM BCNU for 2 h
Experimental: KB, HT29 and A549 cells are grown in RPMI 1640 medium or in RPMI medium lacking folate in the presence of 10% fetal bovine serum. The effect of alkyltransferase inactivators on the sensitivity of cells to BCNU is determined using a colony-forming assay (Wei et al., J. Med. Chem. 2005, 48, 256-261; Nelson et al., J. Med. Chem. 2004, 47, 3887-3891; Chae et al., J. Med. Chem. 1994, 37, 342-347; and Dolan et al., Proc. Natl. Acad. Sci. U.S.A. 1990, 87, 5368-5372). Cells are plated at a density of 10^6 in 25 cm^2 flasks and 24 h later are incubated with different concentrations of potential inhibitors for 2-8 h as indicated before exposure to 20 or 40 μM BCNU for 2 h as previously described (Wei et al., J. Med. Chem. 2005, 48, 256-261; Nelson et al., J. Med. Chem. 2004, 47, 3887-3891). After 2 h, the medium is replaced with fresh medium containing the drug but no BCNU and the cells are left to grow for an additional 16-18 h. The cells are then replated at densities of 250-1000 cells per 25 cm^2 flask and grown for 8 days until discrete colonies have formed. The colonies are washed with 0.9% saline solution, stained with 0.5% crystal violet in ethanol, and counted.

[5] = biological target: T1, human alkyltransferase; settings: previously published, read-out: ED50 for inactivation of alkyltransferase, cited from earlier work
[6] = +DNA (10 μg calf thymus DNA), 30 min at 37° C, read-out: ED50 for inactivation of alkyltransferase
[7] = absence of DNA, read-out: ED50 value in the absence of DNA

Row | Structure (SMILES) | EC50 [1, 6] | ED50 lower than O^6-benzylguanine ([1]; absence of DNA) | ED50 lower than the parent O^6-benzyl-2′-deoxyguanosine ([1]; absence of DNA) | EC50 [1, 7] | inactivation of alkyltransferase compared with parent compound [1] | rate of release of folate [2] | release of folate by extracts from human tumor cells [3] | sensitization of HT29 cells to killing by BCNU [4] | EC50 ([5]; +DNA) | EC50 ([5]; −DNA) | increase of ED50 when DNA is present ([1]; +DNA versus −DNA) | EC50 ([1]; −DNA (hemocyanin), 30 min at 37° C, read-out: ED50 for inactivation of alkyltransferase)
1 | Nc1nc(OCc2ccccc2)c2ncn([C@H]3CC(OC(=O)CC[C@H](NC(=O)c4ccc(NCc5cnc6nc(N)[nH]c(=O)c6n5)cc4)C(=O)O)[C@@H](CO)O3)c2n1 (stereo partly shown) [Compound 1, O^6-Benzyl-3′-O-[γ-folyl]-2′-deoxyguanosine] | 680 nM | 10 times | 100 times | 16 nM | more active than O^6-benzyl-2′-deoxyguanosine itself | about 2.2 % per day | able to release folate | able to sensitize HT29 cells to killing by BCNU | – | – | – | –
2 | Nc1nc(OCc2ccccc2)c2ncn([C@H]3C[C@H](O)[C@@H](CO)O3)c2n1 [O^6-benzyl-2′-deoxyguanosine] | – | – | – | – | – | – | – | – | 40000 nM | 2000 nM | – | –
3 | Nc1nc(OCc2ccccc2)c2ncn([C@H]3CC(O)[C@@H](COC(=O)CC[C@H](NC(=O)c4ccc(NCc5cnc6nc(N)[nH]c(=O)c6n5)cc4)C(=O)O)O3)c2n1 (stereo partly shown) [Compound 2, O^6-Benzyl-5′-O-[γ-folyl]-2′-deoxyguanosine] | 3060 ± 180 nM | – | – | 640 nM | more active than O^6-benzyl-2′-deoxyguanosine itself | ~3.2 % per day | able to release folate | able to sensitize HT29 cells to killing by BCNU | – | – | 5 fold | –
4 | Nc1nc(OCc2ccc(COC(=O)CC[C@H](NC(=O)c3ccc(NCc4cnc5nc(N)[nH]c(=O)c5n4)cc3)C(=O)O)cc2)c2nc[nH]c2n1 [Compound 3, O^6-[4-[(γ-folyl)-oxymethyl]benzyl]guanine] | 240 nM | – | – | – | slightly less effective than the free base parent | ~0.9 % per day | able to release folate | – | – | – | – | 700 nM

Source: patent US8188055B2, “Inactivators of O6-alkylguanine-DNA alkyltransferase” (The United States of America, as represented by the …, priority 2007, dated 2012)
